Measurements as given in patent US5470852A, “Tetrahydroprotoberberine quaternary ammonium compounds useful in for treating arrhythmia” (priority 1991, dated 1995).
Like-named read-outs stand apart in the source and are kept apart here.

Tests used:
[1] = tested on: anaesthetized rats; conditions: for Antiarrhythmic effect / Arrhythmic scores / Lethal risk: X ± SD; for Incidence of VF: n=10; for animals with VF / animals without VF / Death: of n=10; for therapeutic index (TI), VF / therapeutic index (TI), arrhythmias: rat, in vivo
[2] = tested on: anaesthetized rats; assay: animal or person; conditions: Rattus norvegicus

Q: What does the source list for `COc1ccc2c(c1OC)C[N+]1(Cc3ccc(Cl)cc3)CCc3cc4c(cc3C1C2)OCO4` (centres unmarked) [Compound I13, 7-(4-chlorobenzyl)-5,8,13,13a-tetrahydroberberine chloride]?
A: Antiarrhythmic effect ([1]; iv 1.0 mg/kg, reperfusion 2 min): 0.20 ± 0.26; Antiarrhythmic effect ([1]; iv 1.0 mg/kg, reperfusion 3 min): 0.20 ± 0.26; Antiarrhythmic effect ([1]; iv 1.0 mg/kg, reperfusion 5 min): 0.20 ± 0.26; Antiarrhythmic effect ([1]; iv 1.0 mg/kg, reperfusion 6 min): 0.20 ± 0.26; Antiarrhythmic effect ([1]; iv 1.0 mg/kg, reperfusion 7 min): 0.20 ± 0.26; Antiarrhythmic effect ([1]; iv 1.0 mg/kg, reperfusion 10 min): 0.20 ± 0.26; Antiarrhythmic effect ([1]; iv 1.0 mg/kg, reperfusion 15 min): 0.10 ± 0.21; Antiarrhythmic effect ([1]; iv 1.0 mg/kg, reperfusion 25 min): 0.10 ± 0.21; potency relative to propafenon ([1]; p.o.): considerably more potent; Arrhythmic scores ([1]; po 10 mg/kg): 2.7 ± 1.9; Antiarrhythmic effect ([1]; po 10 mg/kg, coronary occlusion 5 min): 0.4 ± 0.8; Antiarrhythmic effect ([1]; po 10 mg/kg, coronary occlusion 10 min): 0.50 ± 0.16; Incidence of VF ([1]; po 10 mg/kg): 20%; animals with VF ([1]; po 10 mg/kg): 2; animals without VF ([1]; po 10 mg/kg): 8; Antiarrhythmic effect ([1]; po 10 mg/kg, reperfusion 0.17 min): 2.6 ± 1.8; Antiarrhythmic effect ([1]; po 10 mg/kg, reperfusion 0.33 min): 2.7 ± 1.9; Antiarrhythmic effect ([1]; po 10 mg/kg, reperfusion 0.5 min): 1.9 ± 1.7; Antiarrhythmic effect ([1]; po 10 mg/kg, reperfusion 1 min): 1.9 ± 1.6; Antiarrhythmic effect ([1]; po 10 mg/kg, reperfusion 1.5 min): 1.4 ± 1.3; Antiarrhythmic effect ([1]; po 10 mg/kg, reperfusion 3 min): 1.1 ± 1.5; Antiarrhythmic effect ([1]; po 10 mg/kg, reperfusion 4 min): 1.2 ± 1.4; Antiarrhythmic effect ([1]; po 10 mg/kg, reperfusion 5 min): 1.0 ± 1.2; Antiarrhythmic effect ([1]; po 10 mg/kg, reperfusion 6 min): 0.8 ± 1.1; Antiarrhythmic effect ([1]; po 10 mg/kg, reperfusion 7 min): 0.8 ± 1.1; Antiarrhythmic effect ([1]; po 10 mg/kg, reperfusion 15 min): 0.8 ± 1.1; Antiarrhythmic effect ([1]; po 10 mg/kg, reperfusion 25 min): 0.8 ± 1.1; Arrhythmic scores ([1]; po 30 mg/kg): 3.2 ± 2.2; Lethal risk ([1]; po 30 mg/kg): 57 ± 26; Antiarrhythmic effect ([1]; po 30 mg/kg, coronary occlusion 5 min): 0 ± 0; Antiarrhythmic effect ([1]; po 30 mg/kg, coronary occlusion 10 min): 1.6 ± 1.6; Incidence of VF ([1]; po 30 mg/kg): 20%; Death ([1]; po 30 mg/kg): 1; animals with VF ([1]; po 30 mg/kg): 2; animals without VF ([1]; po 30 mg/kg): 7; Antiarrhythmic effect ([1]; po 30 mg/kg, reperfusion 0.17 min): 3.2 ± 1.2; Antiarrhythmic effect ([1]; po 30 mg/kg, reperfusion 0.33 min): 2.8 ± 2.1; Antiarrhythmic effect ([1]; po 30 mg/kg, reperfusion 0.5 min): 1.7 ± 1.7; Antiarrhythmic effect ([1]; po 30 mg/kg, reperfusion 1 min): 1.1 ± 1.5; Antiarrhythmic effect ([1]; po 30 mg/kg, reperfusion 1.5 min): 1.1 ± 1.5; Antiarrhythmic effect ([1]; po 30 mg/kg, reperfusion 3 min): 1.6 ± 2.4; Antiarrhythmic effect ([1]; po 30 mg/kg, reperfusion 4 min): 0.8 ± 1.3; Antiarrhythmic effect ([1]; po 30 mg/kg, reperfusion 5 min): 0.2 ± 0.2; Antiarrhythmic effect ([1]; po 30 mg/kg, reperfusion 6 min): 0.2 ± 0.2; Antiarrhythmic effect ([1]; po 30 mg/kg, reperfusion 7 min): 0.15 ± 0.24; Antiarrhythmic effect ([1]; po 30 mg/kg, reperfusion 15 min): 0.11 ± 0.22; Antiarrhythmic effect ([1]; po 30 mg/kg, reperfusion 25 min): 0.05 ± 0.17; Arrhythmic scores ([1]; po 100 mg/kg): 0.7 ± 0.2; Lethal risk ([1]; po 100 mg/kg): 41 ± 0; Antiarrhythmic effect ([1]; po 100 mg/kg, coronary occlusion 5 min): 0.20 ± 0.24; Antiarrhythmic effect ([1]; po 100 mg/kg, coronary occlusion 10 min): 0.3 ± 0.6; Incidence of VF ([1]; po 100 mg/kg): 0%; Death ([1]; po 100 mg/kg): 0; animals with VF ([1]; po 100 mg/kg): 0; animals without VF ([1]; po 100 mg/kg): 10; Antiarrhythmic effect ([1]; po 100 mg/kg, reperfusion 0.17 min): 0.10 ± 0.21; Antiarrhythmic effect ([1]; po 100 mg/kg, reperfusion 0.33 min): 0.05 ± 0.16; Antiarrhythmic effect ([1]; po 100 mg/kg, reperfusion 0.5 min): 0.4 ± 1.2; Antiarrhythmic effect ([1]; po 100 mg/kg, reperfusion 1 min): 0.05 ± 0.16; Antiarrhythmic effect ([1]; po 100 mg/kg, reperfusion 1.5 min): 0.05 ± 0.16; Antiarrhythmic effect ([1]; po 100 mg/kg, reperfusion 3 min): 0.05 ± 0.16; Antiarrhythmic effect ([1]; po 100 mg/kg, reperfusion 4 min): 0.05 ± 0.16; Antiarrhythmic effect ([1]; po 100 mg/kg, reperfusion 5 min): 0.05 ± 0.16; Antiarrhythmic effect ([1]; po 100 mg/kg, reperfusion 6 min): 0.05 ± 0.16; Antiarrhythmic effect ([1]; po 100 mg/kg, reperfusion 7 min): 0.05 ± 0.16; Antiarrhythmic effect ([1]; po 100 mg/kg, reperfusion 15 min): 0.05 ± 0.16; Antiarrhythmic effect ([1]; po 100 mg/kg, reperfusion 25 min): 0.05 ± 0.16; therapeutic index (TI), VF ([1]; iv): 35; therapeutic index (TI), arrhythmias ([1]; iv): 26; therapeutic index (TI), VF ([1]; po): 92; therapeutic index (TI), arrhythmias ([1]; po): 70; ED50 ([2]; iv): 0.16 mg/kg; ED50 ([2]; iv, read-out: ED50 against VF): 0.16 mg/kg; ED50 ([2]; iv, read-out: ED50 against arrhythmias): 0.22 mg/kg; ED50 ([2]; po): 16.5 mg/kg; ED50 ([2]; po, read-out: ED50 against VF): 20 mg/kg; ED50 ([2]; po, read-out: ED50 against arrhythmias): 16.5 mg/kg
